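How tested: cells in 96-well plates exposed to compound for 48 hours at five concentrations. Definition used: TGI = concentration required for complete inhibition of growth.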
Assays:
Test in all cases: NCI anticancer screen, dose series, 48 h
SNB-19 CNS = test system: SNB-19 CNS
M14 melanoma = test system: M14 melanoma
HCT-116 colon = test system: HCT-116 colon
A498 renal = test system: A498 renal
K-562 leukemia = test system: K-562 leukemia
EKVX NSCLC = test system: EKVX NSCLC
MDA-N = test system: MDA-N
UACC-62 melanoma = test system: UACC-62 melanoma
MDA-MB-231 breast = test system: MDA-MB-231 breast
MOLT-4 leukemia = test system: MOLT-4 leukemia

Compound | TGI (SNB-19 CNS) | TGI (M14 melanoma) | TGI (HCT-116 colon) | TGI (A498 renal) | TGI (K-562 leukemia) | TGI (EKVX NSCLC) | TGI (MDA-N) | TGI (UACC-62 melanoma) | TGI (MDA-MB-231 breast) | TGI (MOLT-4 leukemia)
OC1(c2cc3ccccc3s2)CCCCC1 | > 100 µM | > 100 µM | > 100 µM | > 100 µM | > 100 µM | 71.7 µM | > 100 µM | > 100 µM | 87.5 µM | 67.4 µM
O=[N+]([O-])c1ccc(N=Nc2c(O)c(S(=O)(=O)O)cc3cc(S(=O)(=O)O)ccc23)cc1 | > 100 µM | > 100 µM | > 100 µM | > 100 µM | > 100 µM | > 100 µM | > 100 µM | > 100 µM | > 100 µM | > 100 µM
Cc1sc(/N=C/c2c[nH]c3ccccc23)c(C#N)c1C | > 100 µM | > 100 µM | > 100 µM | 96.7 µM | > 100 µM | > 100 µM | > 100 µM | 78.8 µM | > 100 µM | > 100 µM
CN(NC(=O)CCCl)C1=NCCCCN1 | > 100 µM | > 100 µM | > 100 µM | > 100 µM | > 100 µM | > 100 µM | > 100 µM | > 100 µM | > 100 µM | > 100 µM
COC(OC)C1OC(CO)C(n2ccc(N)nc2=O)C1O (stereo not given) | > 100 µM | > 100 µM | > 100 µM | > 100 µM | > 100 µM | > 100 µM | > 100 µM | > 100 µM | > 100 µM | > 100 µM
